Usually IC50 stands for the midpoint of a concentration-inhibition curve.

The source of these data is patent publication US20250228958A1, “TSP1 INHIBITOR” (Daiichi Sankyo Company, Limited, priority 2022, published 2025).

Data set [1] has as its system C57BL/6 mice, ischemic limb blood flow. The data set is described as follows: Blood flow improvement measurement tests (femoral artery/vein ligation and excision, laser Doppler). Type of data set: in vivo, mouse. To be noted: for blood flow AUC, % of vehicle group mean: blood flow AUC from beginning to end of measurement, ratio to vehicle-treated group mean; for %, ischemia/nonischemia (blood flow on the last day of measurement): mean ± standard error, ratio of ischemic limb flow to non-ischemic limb flow. From the text:
Six to seven-week-old C57BL/6 mice were purchased from Charles River Laboratories Japan Inc., and acclimated over six days by feeding with a FR-2 solid diet (produced by Funabashi Farm Co., Ltd.). The rearing facility switched between light and dark modes in a 12-hour cycle with light turning on at 7 a.m. and turning off at 7 p.m. Under isoflurane inhalation anaesthesia, the left thighs of the mice were dissected, and the superficial femoral arteries and veins (from just below the deep femoral arteries to the popliteal artery and vein) were ligated and excised. […] Five mice were used for each treatment group.
Blood flows were measured in ischemic (left) and non-ischemic (right) limbs using a laser Doppler perfusion imager (PeriScan PIM III, Moor LD12-HR). The improvement of blood flow was evaluated by the ratio of ischemic limb flow to non-ischemic limb flow. […] In addition, blood flow AUC was calculated to determine the ratio (%) of the mean value of the test substance-treated group to the mean value of the vehicle-treated group.

Data set [2] is described as follows: Serum stability test, monkey serum. Type of data set: in vitro ADME, cynomolgus monkey. To be noted: male, residual ratio: IS ratio at 4 hours relative to 0 hours, 37° C. From the text:
(§1) • Mouse serum (BALB/c CrSlc, male, Japan SLC, Inc.) • Monkey serum (cynomolgus monkey, male, Japan SLC, Inc.) • Human serum (Caucasian, pool of 5 males and 5 females, KAC Co., Ltd.) • Phenacetin (Nacalai Tesque, Inc.) • Niflumic acid (Nacalai Tesque, Inc.) • Furosemide (Nacalai Tesque, Inc.) • Acetonitrile (FUJIFILM Wako Pure Chemical Corporation) • Methanol (FUJIFILM Wako Pure Chemical Corporation) • Formic acid (FUJIFILM Wako Pure Chemical Corporation) • Dimethyl sulfoxide (DMSO) (FUJIFILM Wako Pure Chemical Corporation)
(§2) Solutions of Phenacetin, niflumic acid, and furosemide were prepared in DMSO at 10 μg/ml, 150 μg/ml, and 200 μg/ml, respectively. 10 μg/ml of phenacetin in DMSO, 150 μg/ml of niflumic acid in DMSO, and 200 μg/ml of furosemide in DMSO were dissolved in a mixture of […]/methanol (75/25, v/v) (final concentrations: phenacetin; 1 ng/mL, niflumic acid: 15 ng/mL, and furosemide 20 ng/mL), and formic acid was added to the prepared test solution (final concentration: 1% (v/v)) to prepare a formic acid-containing IS solution.
(§3) The test substances were prepared in DMSO to a concentration of 10 mM each. Further, the solution was diluted with DMSO to a concentration of 2 mM to make a test substance solution.
(§4) Each serum was preincubated at 37° C. for 5 minutes, and then the test substance solution was added to a final concentration of 20 μM to initiate the reaction. The test substance-added serum was incubated at 37° C. At 0 and 4 hours after the start of the reaction, a portion of the serum was taken out and added to the formic acid-containing IS solution to stop the reaction, which was used as a measurement sample.
(§5) The test substance and IS (phenacetin, niflumic acid, and furosemide) in the measurement sample were measured by LC-MS/MS, and the peak area ratio (IS ratio) of the test substance to IS (any of phenacetin, niflumic acid, and furosemide) was calculated.
(§6) The percentage of the IS ratio at 4 hours after the start of the reaction relative to that at 0 hours after the start of the reaction was used as a residual ratio to evaluate serum stability.

Data set [3] in a line: Serum stability test, mouse serum. Type of data set: in vitro ADME.
Description: as §1, §2, §3, §4, §5, §6

Data set [4] can be described thus: Serum stability test, human serum. Type of data set: in vitro ADME. To be noted: both sexes, residual ratio: IS ratio at 4 hours relative to 0 hours, 37° C.
Description: as §1, §2, §3, §4, §5, §6

In data set [5] the target is T1, human TSP1 (Homo sapiens, UniProt P07996).
T1 construct: Thrombospondin human platelet (Calbiochem, 605225); purchased Calbiochem 605225; host or cells: human platelets (natural source, not recombinant)
T1 sequence (P07996 19-1170): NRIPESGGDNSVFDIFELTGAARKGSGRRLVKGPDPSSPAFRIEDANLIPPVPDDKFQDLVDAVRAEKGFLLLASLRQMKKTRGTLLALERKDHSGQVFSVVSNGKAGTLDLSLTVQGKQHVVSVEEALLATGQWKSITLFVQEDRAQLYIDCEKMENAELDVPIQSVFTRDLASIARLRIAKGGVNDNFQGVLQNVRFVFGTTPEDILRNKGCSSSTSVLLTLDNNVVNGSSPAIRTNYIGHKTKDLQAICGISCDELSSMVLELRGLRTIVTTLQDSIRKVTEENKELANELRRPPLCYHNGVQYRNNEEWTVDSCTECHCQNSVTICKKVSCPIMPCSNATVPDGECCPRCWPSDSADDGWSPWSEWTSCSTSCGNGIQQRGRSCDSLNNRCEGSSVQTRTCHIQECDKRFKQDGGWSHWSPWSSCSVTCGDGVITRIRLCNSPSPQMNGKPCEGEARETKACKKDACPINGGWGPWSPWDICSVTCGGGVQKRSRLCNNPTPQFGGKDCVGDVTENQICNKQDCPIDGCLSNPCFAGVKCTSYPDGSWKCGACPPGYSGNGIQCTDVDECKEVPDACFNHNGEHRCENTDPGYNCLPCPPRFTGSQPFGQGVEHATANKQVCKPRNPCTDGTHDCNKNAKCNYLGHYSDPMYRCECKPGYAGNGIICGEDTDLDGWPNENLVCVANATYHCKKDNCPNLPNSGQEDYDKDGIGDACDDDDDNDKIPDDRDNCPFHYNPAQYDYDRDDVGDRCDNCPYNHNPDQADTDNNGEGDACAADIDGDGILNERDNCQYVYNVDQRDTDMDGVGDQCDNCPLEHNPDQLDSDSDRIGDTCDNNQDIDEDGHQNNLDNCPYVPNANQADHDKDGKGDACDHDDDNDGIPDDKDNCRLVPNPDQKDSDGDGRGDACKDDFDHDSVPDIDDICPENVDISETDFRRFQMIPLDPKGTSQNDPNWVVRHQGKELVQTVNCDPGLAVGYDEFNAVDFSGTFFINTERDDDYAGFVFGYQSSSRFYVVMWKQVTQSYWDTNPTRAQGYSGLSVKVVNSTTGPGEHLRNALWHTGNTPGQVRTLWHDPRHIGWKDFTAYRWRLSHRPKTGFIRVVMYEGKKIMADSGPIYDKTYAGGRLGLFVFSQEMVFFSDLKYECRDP
The data set is described as follows: Cell adhesion inhibition assay (HUVEC adhesion to TSP1-coated plate). Type of data set: cell-based. To be noted: inhibition of HUVEC adhesion to human TSP1-coated plate.
Description: • 384-well Low Flange Black Flat Bottom Polystyrene Not Treated Microplate (Corning, 3573) • Proteosave(registered trademark) SS 15 mL (Sumitomo Bakelite, MS-52150) • Thrombospondin human platelet (Calbiochem, 605225) • HUVEC (KURABO, KE-4109P10) • EGM-2 MV (Lonza, CC-3202): for HUVEC passaging • Collagen coated dish (IWAKI, 4020-010): for HUVEC passaging • Lipidure(registered trademark)-BL802 (NOF Corporation), 5% solution • DMEM low glucose (GIBCO, 11054-020) • Bovine serum albumin (BSA) solution 30% (Sigma A9205) • CellTiter-Glo 2.0 (Promega G9242) […]
To maintain human umbilical vein endothelial cells, HUVECs, EGM2-MV and a collagen coated dish were used (the cells were ceased to be used after 10th or 11th passage since the cell proliferation rate declined at this stage). […] After removal of supernatant, the cells were resuspended in a DMEM buffer, counted for cell number, and diluted to 6000 cells/10 μL. […]
The culture medium was removed, and the plate was washed twice with 30 L/well of HBSS/Hepes 0.5% BSA. […] Fluorescence emission was detected using EnVision Xcite Multilabel Reader (produced by Perkin Elmer).
On the basis of the measured fluorescence values, the IC50 values (nM) of the different cyclic peptides and conjugates for inhibition of cell adhesion were calculated. […]

Data set [6] concerns the target Thrombospondin human platelet (Calbiochem, 605225) (human, UniProt P07996 19-1170). In words: cell-based or functional assay.

“Also recorded” adds a separate entry of the source. Positions of bridges follow the written chain, without caps; N, C: chain ends. Non-standard residues stand in square brackets, D forms with d. Residues, ends and D or L forms follow the SMILES beside them. Chains are numbered I, II in the order given. No end group written: not given here. maleimide = maleimide-group-derived moiety in the linking group, forming a thioether bond with the thiol of a cysteine residue of the carrier molecule; KPEG = (2S)-6-amino-2-[[2-(methoxy-oligo(ethoxy))acetyl]amino]hexanoic acid (Lys with N-alpha methoxy-PEG acetyl); 2Nal = N[C@@H](Cc1ccc2ccccc2c1)C(=O)O; Gly(cPent) = N[C@H](C(=O)O)C1CCCC1; Agb = N=C(N)NCC[C@H](N)C(=O)O; Tle = CC(C)(C)[C@H](N)C(=O)O; hCys = N[C@@H](CCS)C(=O)O; P12P = not defined here

Chain of Thrombospondin human platelet (Calbiochem, 605225) (P07996 19-1170 limits assumed): as the sequence (P07996 19-1170) above

As to `CC(=O)N[C@H]1[C@H]([C@H](O)[C@H](O)CO)O[C@](CO)(OC[C@H]2O[C@@H](OC3[C@@H](CO)C[C@H](O[C@@H]4[C@@H](OC[C@H]5OC(O[C@H]6[C@H](O)[C@@H](NC(C)=O)C(O[C@H]7[C@H](O)[C@@H](NC(C)=O)C(OCC(=O)NCCCC[C@H](NC(=O)CNC(=O)CNC(=O)CNC(=O)CNC(=O)[C@@H]8CSCC(=O)N[C@@H](Cc9ccc%10ccccc%10c9)C(=O)N[C@H](CCCNC(=N)N)C(=O)N[C@@H](CO)C(=O)NCC(=O)N[C@@H](CCNC(=N)N)C(=O)N[C@H](CC(N)=O)C(=O)N[C@@H](Cc9c[nH]c%10ccccc9%10)C(=O)N[C@@H](C(C)N)C(=O)N[C@H](CCCNC(=N)N)C(=O)N[C@@H](Cc9c[nH]c%10ccccc9%10)C(=O)N[C@@H](C9CCCC9)C(=O)N8)C(=O)NCCOCCOCCOCCOCCOCCOCCOCCOCCOCCOCCOCCOCCC(=O)NCCOCCOCCOCCOCCOCCOCCOCCOCCOCCOCCOCCOCCC(=O)N[C@H](CCCCNC(=O)CCN8C(=O)CC(C)C8=O)C(N)=O)O[C@@H]7CO)O[C@@H]6CO)[C@@H](O)[C@@H](O[C@H]6O[C@H](CO)[C@@H](O)[C@H](O)[C@@H]6O[C@@H]6O[C@H](CO)C(O[C@@H]7O[C@H](CO[C@]8(C(=O)O)C[C@H](O)[C@@H](NC(C)=O)[C@H]([C@H](O)[C@H](O)CO)O8)[C@H](O)[C@H](O)[C@H]7O)[C@H](O)[C@H]6NC(C)=O)[C@@H]5O)O[C@H](CO)[C@@H](O)[C@@H]4O)[C@H](NC(C)=O)[C@H]3O)[C@H](O)[C@@H](O)[C@H]2O)C[C@@H]1O` (some centres unmarked) [Conjugate-56], in data set [1] (0.3 mg/kg), the “blood flow AUC, % of vehicle group mean” value amounted to 187.6% and the “%, ischemia/nonischemia (blood flow on the last day of measurement)” value is listed as 40.2 ± 5.6%. Moreover, in data set [1] (1 mg/kg), the “blood flow AUC, % of vehicle group mean” value turned out to be 318.4% and the “%, ischemia/nonischemia (blood flow on the last day of measurement)” value was determined as 74.8 ± 11.0%.

On to `N=C(N)NCCC[C@@H]1NC(=O)[C@H](Cc2ccc3ccccc3c2)NC(=O)CSC[C@@H](C(N)=O)NC(=O)[C@H](C2CCCC2)NC(=O)[C@H](Cc2c[nH]c3ccccc23)NC(=O)[C@H](CCCNC(=N)N)NC(=O)[C@@H]2CCSSCC[C@H](NC1=O)C(=O)NCC(=O)N[C@@H](CCNC(=N)N)C(=O)N[C@@H](CC(N)=O)C(=O)N[C@@H](Cc1c[nH]c3ccccc13)C(=O)N2` [Peptide-1] ({CH2CO}-[2Nal]R[hCys]G[Agb]NW[hCys]RW[Gly(cPent)]C-NH2; disulfide 3-8; thioether N-12), for which the amount remaining at 4 h, 20 μM was determined as 90.6% in data set [2]; 101% in data set [3] (male, BALB/c CrSlc, mouse, mouse serum, residual ratio: IS ratio at 4 hours relative to 0 hours, 20 μM, 37° C.); 93.9% in data set [4]. In data set [3] (statement covers mouse, monkey and human serum, 4 hours), the “serum stability (in words)” value is given as “high serum stability; also recorded: higher serum stability”. The molecule also returned an IC50 in data set [5] of 0.0126 µM.

Turning to `CC(C)(C)[C@@H]1NC(=O)[C@H](Cc2ccc3ccccc3c2)NC(=O)CSC[C@@H](C(N)=O)NC(=O)[C@H](C2CCCC2)NC(=O)[C@H](Cc2c[nH]c3ccccc23)NC(=O)[C@H](CCCNC(=N)N)NC(=O)[C@@H]2CCSSCC[C@H](NC1=O)C(=O)NCC(=O)N[C@@H](CCCNC(=N)N)C(=O)N[C@@H](CC(N)=O)C(=O)N[C@@H](Cc1c[nH]c3ccccc13)C(=O)N2` [Peptide-8] ({CH2CO}-[2Nal][Tle][hCys]GRNW[hCys]RW[Gly(cPent)]C-NH2; disulfide 3-8; thioether N-12), it took 0.0126 µM to reach half-maximal inhibition in data set [5] (IC50).

B1: Conjugate-10 (other)
peptide: [2Nal]R[hCys]GRDW[hCys]RW[Gly(cPent)]CGSGSDD[KPEG][P12P][P12P]K(maleimide)-NH2
chain: DKTHTCPPCPAPEAAGGPSVFLFPPKPKDTLMISRTPEVTCVVVDVSHEDPEVKFNWYVDGVEVHNAKTKPREEQYNSTYRVVSVLTVLHQDWLNGKEYKCKVSNKALAAPIEKTISKAKGQPREPQVYTLPPSREEMTKNQVSLTCLVKGFYPSDIAVEWESNGQPENNYKTTPPVLDSDGSFFLYSKLTVDKSRWQQGNVFSCSVMHEALHNHYTQKSLSLSPGK
modifications: disulfide I:3-I:8; not fully specified; reading uncertain; also: Lys22 maleimide side chain thioether-linked to Fc hinge Cys6 and Cys9 (Eu 226, 229), thioether at chain A 1 at chain A 12 to a chain's N-terminus
Consider B1, for which the “IC50 for inhibition of cell adhesion (HUVEC to coated human TSP1)” value in data set [6] amounted to 0.0128 µM.
